Experimental data: PubChem BioAssay (NCI)
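48-hour exposure; five concentrations; linearly interpolated endpoints. TGI is the concentration that stops growth completely.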

Assays:
Assay in all cases: DTP human tumour cell line panel, 48 h
HCC-2998 colon = test system: HCC-2998 colon
UACC-62 melanoma = test system: UACC-62 melanoma
SK-MEL-5 melanoma = test system: SK-MEL-5 melanoma
MDA-MB-435 = test system: MDA-MB-435
M19-MEL melanoma = test system: M19-MEL melanoma
HS 578T breast = test system: HS 578T breast
SK-OV-3 ovarian = test system: SK-OV-3 ovarian
DMS 114 small cell lung = test system: DMS 114 small cell lung
CCRF-CEM leukemia = test system: CCRF-CEM leukemia
DLD-1 colon = test system: DLD-1 colon
HL-60(TB) leukemia = test system: HL-60(TB) leukemia

Row | Structure (SMILES) | TGI (HCC-2998 colon) | TGI (UACC-62 melanoma) | TGI (SK-MEL-5 melanoma) | TGI (MDA-MB-435) | TGI (M19-MEL melanoma) | TGI (HS 578T breast) | TGI (SK-OV-3 ovarian) | TGI (DMS 114 small cell lung) | TGI (CCRF-CEM leukemia) | TGI (DLD-1 colon) | TGI (HL-60(TB) leukemia)
1 | O=C1C=C(NCCc2ccccc2)c2ccccc2C1=O | 4.09 µM | 3.34 µM | 2.31 µM | 2.34 µM | 0.927 µM | 5.09 µM | 27 µM | 5.81 µM | 67.9 µM | 21.9 µM | 13.6 µM
2 | CCOC(=O)C(Cc1cc(OC)c(CC(C(=O)OCC)C(=O)OCC)cc1OC)C(=O)OCC | > 100 µM | > 100 µM | > 100 µM | > 100 µM | > 100 µM | > 100 µM | > 100 µM | > 100 µM | > 100 µM | > 100 µM | > 100 µM
3 | O=S1(=O)CCC2=CC(C(F)(F)F)=CC(C(F)(F)F)=CN21 | 3.68 µM | 3.69 µM | 3.02 µM | 4.77 µM | 3.08 µM | > 43.4 µM | 12.2 µM | 3.32 µM | 2.48 µM | 1.77 µM | 3.9 µM
4 | Cc1nc(Nc2ccc(Cl)cc2)sc1C(=O)Nc1cccc2c(=O)[nH][nH]c(=O)c12 | > 100 µM | 16.4 µM | 45.2 µM | – | 84.4 µM | – | > 100 µM | 61.9 µM | 79.5 µM | 86.4 µM | 45.2 µM
